Measurements published in PubChem BioAssay AID1963830 (Molecular Pharmacology Branch, DTP, NCI, 2024).
Where “and” joins values, the source holds several entries; their conditions need not be identical. Equal entries are not always repeated.

System: 922993-354-T-J3-PDC complex spheroid viability
Test: Anticancer human tumor 922993-354-T-J3-PDC patient-derived endometrial carcinoma cell line growth inhibition [POLQ]
Settings: for viability, T/C: stronger effect = lower value
Protocol: Multicellular complex tumor spheroid response to Polymerase (POL) inhibitors (novobiocin, ART-558, RP6685) in combination with a variety of drugs and investigational agents in selected tumor cell lines
The POL inhibitors (novobiocin, ART-558, and RP6685) were evaluated both individually and in combination with standard of care and investigational anticancer small molecules within a complex spheroid model of solid tumors. . Complex spheroids include a stromal component modeled by human endothelial cells (HUVEC) and fibroblasts modeled by human mesenchymal stem cells (MSCs). The concentration ranges selected for each drug and investigational agent were based upon clinically achievable concentrations if the clinical Cmax of the agent was known.
Compounds. The drugs and investigational agents: novobiocin (NSC847541), ART-558 (NSC835418), RP-6685 (NSC848927), peposertib (NSC802822), ceralasertib (NSC780249), elimusertib (NSC800525), camonsertib (NSC841442), AZD-1390 (NSC803789), olaparib (NSC753686), talazoparib (NSC767125), rucaparib (NSC756644), sotorasib (NSC818433), MRTX-1133 (NSC836407), SN-38 (NSC673596), topotecan (NSC609699), epotoside (NSC141540), doxorubicin (NSC123127), gemcitabine (NSC613327), 5-fluorouracil (NSC19893), paclitaxel (NSC125973), vemurafenib (NSC761431), MSA-2 (NSC828583), SN-011 (NSC837082), adavosertib (NSC754352), prexasertib (NSC758257), carboplatin (NSC241240) and oxaliplatin (NSC266046), were obtained from the National Cancer Institute (NCI) Developmental Therapeutics Program Chemical Repository (21). The FDA-approved anticancer drug set is available from the Developmental Therapeutics Program at https://dtp.cancer.gov/organization/dscb/obtaining/. […] The stock solutions were prepared in dimethyl sulfoxide (DMSO, Sigma-Aldrich, St. Louis, MO, cat. D2650), except for the platinum compounds which were prepared in saline (Quality Biological, Gaithersburg, MD, cat. 114-055-101), at 800-fold the tested concentration and stored at -70 degrees C prior to their use. All drugs and investigational agents were tested over a range starting from a high concentration at or near the clinical Cmax and decreasing in half-log increments. If the clinical Cmax for an agent had not been determined, the highest concentration tested was 10 microM, except for SN-38, which was tested at a high concentration of 1 microM.
Cell Culture. All cells were maintained in an incubator at 37 degrees C and 5% CO2 with 95% humidity. The PDC lines were cultured according to standard operating procedures established by the NCI PDMR (https://pdmr.cancer.gov). Table 3 of the manuscript, lists the cell lines along with the number of the three cell types plated to form the mct-spheroids and media for tumor cell growth. After thawing, all PDC lines, except 997537-175-T-J1-PDC and 415267-285-R-J2-PDC, were cultured in Matrigel-coated flasks prepared with a working solution of 1X Ham's F-12 nutrient mix, without supplementation (Thermo Fisher Scientific, cat. 11765054), 100 U/mL penicillin-streptomycin (Thermo Fisher Scientific, cat. 15140122), and 2.5% Matrigel (Corning Inc., Corning, NY, cat. 354248) for the first three passages. The two PDC lines 997537-175-T-J1-PDC and 415267-285-R-J2-PDC were cultured on uncoated flasks. The 857933-349-R-J2-PDC line was cultured in 6C/Colon 1B media containing advanced DMEM/F-12 (Thermo Fisher Scientific, cat. 12634028), 10 mM HEPES (Thermo Fisher Scientific, cat. 15630080), 1X GlutaMAX supplement (Thermo Fisher Scientific, cat. 35050061), 0.1 mg/mL primocin (InvivoGen, San Diego, CA, cat. ant-pm-2), 10% defined fetal bovine serum, heat inactivated (HyClone Laboratories Inc., Logan, UT, cat. SH30070.03HI), 50% L-WRN conditioned media (ATCC, cat. CRL-3276), 1.25 mM N-Acetyl-L-cysteine (Sigma-Aldrich, cat. A9165), 10 mM nicotinamide (Sigma-Aldrich, cat. N0636), 1X B-27 supplement (Thermo Fisher Scientific, cat. 17504044), 1X N-2 supplement (Thermo Fisher Scientific, cat. […]

[1] = compound alone, run of 10/31/2023
[2] = compound alone, run of 11/06/2023
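Note: spheroids exposed to the agents for one week.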
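Throughout, for viability, T/C: 100% = DMSO vehicle control wells.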

SMILES | viability, T/C (compound 0.0316 µM) | viability, T/C (compound 0.1 µM) | viability, T/C (compound 0.316 µM) | viability, T/C (compound 1 µM) | viability, T/C (compound 3.16 µM) | viability, T/C (compound 10 µM) | IC50 [1] [µM] | IC50 (curve of compound) | viability, T/C (compound 0.00316 µM) | viability, T/C (compound 0.01 µM) | IC50 [2] [µM] | viability, T/C (compound 0.000316 µM) | viability, T/C (compound 0.001 µM)
COC1C(OC(N)=O)C(O)C(Oc2ccc3c(O)c(NC(=O)c4ccc(O)c(CC=C(C)C)c4)c(=O)oc3c2C)OC1(C)C (configuration not stated) | 100% [middle of 13 runs] | 102% [middle of 13 runs] | 98.2% [middle of 13 runs] | 101% [middle of 13 runs] | 97.6% [middle of 13 runs] | 93.8% [middle of 13 runs] | > 10 | – | – | – | – | – | –
COc1cc(C2c3cc4c(cc3C(OC3OC5COC(C)OC5C(O)C3O)C3COC(=O)C23)OCO4)cc(OC)c1O (configuration not stated) | 90.2% and 98.8% and 103% | 95.9% and 102% and 93.7% | 85.3% and 104% and 92.5% | 97.9% and 104% and 97.5% | 84.4% and 99.5% and 83.6% | 42.3% and 81.9% and 37% | – | 8.15 µM and > 10 µM and 7.3 µM | – | – | – | – | –
COc1cc2cc(C(=O)CCC(=O)O)sc2cc1OC | 106% (2×) and 103% | 100% and 98.9% and 101% | 108% and 102% and 98.9% | 99.2% and 104% (2×) | 106% and 105% and 116% | 85.2% and 83.3% and 64.8% | – | > 10 µM | – | – | – | – | –
COc1ccc([C@@H](O)c2cc(-c3ncnc4cc(N5CCOCC5)ccc34)c(F)cc2Cl)nn1 | 95.5% and 103% and 107% | 84.6% and 101% and 89.6% | 99.2% and 98.3% and 96.1% | 92.9% and 97.3% and 99.2% | 78.1% and 90.2% and 83.4% | 57% and 75% and 62.1% | – | > 10 µM | – | – | – | – | –
COc1cccc(OCCCN)c1-c1cc(Nc2cnc(C#N)cn2)n[nH]1 | 72% and 101% and 96.2% | 80.4% and 102% (2×) | 16.6% and 92.8% and 90.4% | 12.3% and 21.8% and 21.6% | – | – | – | 0.173 µM and 0.633 µM and 0.623 µM | 95.3% and 103% (2×) | 89.9% and 104% and 99.4% | – | – | –
COc1cccc2c1C(=O)c1c(O)c3c(c(O)c1C2=O)CC(O)(C(=O)CO)CC3OC1CC(N)C(O)C(C)O1 (configuration not stated) | 95.6% and 102% and 94.8% | 84.5% and 106% and 91.1% | 79.2% and 99.9% and 86.9% | 49.4% and 91.8% and 61.5% | 30% and 74.5% and 31.3% | 12.6% and 30.7% and 10.1% | – | 1.12 µM and 6 µM and 1.58 µM | – | – | – | – | –
Cc1cccc(N(C)C(=O)C2C(O)CCN2c2nc(C)cc(C(F)(F)F)c2C#N)c1 (configuration not stated) | 102% [middle of 13 runs] | 101% [middle of 13 runs] | 103% [middle of 13 runs] | 103% [middle of 13 runs] | 103% [middle of 13 runs] | 105% [middle of 13 runs] | > 10 | – | – | – | > 10 | – | –
Cn1ncnc1[C@H]1c2n[nH]c(=O)c3cc(F)cc(c23)N[C@@H]1c1ccc(F)cc1 | 94.3% and 98.1% and 96.2% | 79.3% and 83.4% and 61% | – | – | – | – | – | > 0.1 µM | 94% and 101% and 93.7% | 103% and 100% and 109% | – | 93.8% and 97.3% and 106% | 88.3% and 96.2% and 93.8%
Nc1ccc(C#CCN(C(=O)Cc2ncc(C(F)(F)F)cc2C(F)(F)F)c2ccc(F)cc2)nn1 | 103% [middle of 13 runs] | 102% [middle of 12 runs] | 102% [middle of 13 runs] | 101% [middle of 13 runs] | 101% [middle of 13 runs] | 98% [middle of 13 runs] | – | – | – | – | > 10 | – | –
Nc1ccn(C2OC(CO)C(O)C2(F)F)c(=O)n1 (configuration not stated) | 13.5% and 24% and 10.2% | 9.54% and 19.8% and 10.8% | 11.1% and 19.8% and 8.64% | 12.2% and 17.1% and 9.88% | 9.68% and 23.8% and 9.1% | 8.4% and 22.9% and 7.7% | – | < 0.0316 µM | – | – | – | – | –
O=C(Nc1ccc(O)c(NS(=O)(=O)c2ccc(F)cc2)c1)c1ccc(-c2ccccc2)cc1 | 108% and 103% and 104% | 106% and 103% and 91.7% | 104% and 99.2% and 89.1% | 99.6% and 101% and 99.3% | 108% and 105% and 96.4% | 112% and 101% and 90.3% | – | > 10 µM | – | – | – | – | –
O=C(c1cc(Cc2n[nH]c(=O)c3ccccc23)ccc1F)N1CCN(C(=O)C2CC2)CC1 | 107% and 111% and 103% | 100% and 97.4% and 101% | 95.3% and 93.3% and 102% | 106% and 94% and 101% | 92% and 94% and 104% | 96.9% and 99.4% and 94.8% | – | > 10 µM | – | – | – | – | –
O=c1[nH]cc(F)c(=O)[nH]1 | 92.3% and 104% and 112% | 105% and 101% and 99.1% | 95% and 101% and 95.6% | 101% and 105% and 99.3% | 30.5% and 79.5% and 27.9% | 14.8% and 24.6% and 17.6% | – | 2.27 µM and 5.89 µM and 2.21 µM | – | – | – | – | –
